In ChEMBL document CHEMBL1201862, “PubChem BioAssay data set” (2004):
The source made the active and inactive calls.

Assays:
[1] = target: Luciferin 4-monooxygenase (Photinus pyralis, UniProt P08659); experiment: firefly luciferase enzyme inhibitors, dose response, biochemical, luminescence (AID 1891)
[2] = Luminescence Cell-Based Dose Confirmation HTS to Identify Inhibitors of Platelet Dense Granule Release. [Related pubchem assays: 1663 (Primary HTS), 1678 (Summary of Project)]; format: functional
[3] = target: T1, Short transient receptor potential channel 4 (Mus musculus, UniProt Q9QUQ5); experiment: mouse TRPC4 channel inhibitors, dose response, cell-based, HEK293 TRPC4/mu-opioid, Fluo-4 calcium (AID 434942); format: functional;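 note: potency of inhibitors blocking the TRPC4 calcium response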
T1 sequence (Q9QUQ5 whole entry): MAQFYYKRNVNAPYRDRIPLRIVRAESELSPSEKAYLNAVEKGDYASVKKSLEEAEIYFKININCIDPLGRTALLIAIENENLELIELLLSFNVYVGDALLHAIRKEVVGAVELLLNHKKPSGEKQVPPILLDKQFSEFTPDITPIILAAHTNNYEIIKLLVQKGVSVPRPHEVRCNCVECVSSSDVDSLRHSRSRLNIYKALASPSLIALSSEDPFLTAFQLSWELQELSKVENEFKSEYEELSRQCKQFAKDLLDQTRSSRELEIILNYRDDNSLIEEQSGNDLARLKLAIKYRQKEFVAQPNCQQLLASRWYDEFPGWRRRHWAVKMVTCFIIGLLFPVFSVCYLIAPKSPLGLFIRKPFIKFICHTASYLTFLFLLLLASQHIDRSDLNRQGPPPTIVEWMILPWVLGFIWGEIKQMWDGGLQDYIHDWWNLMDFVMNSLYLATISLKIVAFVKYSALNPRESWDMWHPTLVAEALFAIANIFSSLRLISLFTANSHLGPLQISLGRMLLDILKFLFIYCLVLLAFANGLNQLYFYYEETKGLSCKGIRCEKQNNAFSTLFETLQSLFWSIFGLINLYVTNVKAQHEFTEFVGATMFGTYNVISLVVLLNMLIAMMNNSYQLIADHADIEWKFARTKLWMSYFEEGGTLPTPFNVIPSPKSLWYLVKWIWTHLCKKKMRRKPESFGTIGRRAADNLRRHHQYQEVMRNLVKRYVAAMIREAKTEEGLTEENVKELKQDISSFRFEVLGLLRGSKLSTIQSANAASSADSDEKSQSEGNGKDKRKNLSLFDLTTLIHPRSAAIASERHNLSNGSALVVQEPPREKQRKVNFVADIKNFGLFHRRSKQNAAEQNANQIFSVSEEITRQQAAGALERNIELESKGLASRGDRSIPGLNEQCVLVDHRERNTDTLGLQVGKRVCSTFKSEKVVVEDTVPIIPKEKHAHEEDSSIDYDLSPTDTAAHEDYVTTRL

H9c2 = experiment: cells; format: functional, cell-based; conditions: Rattus norvegicus, H9c2, Myocardium
Cytochrome P450 3A4 = Cytochrome P450 3A4 (Homo sapiens, UniProt P08684);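 note: CYP3A4 tested as one member of a cytochrome P450 panel screen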
Cytochrome P450 2C9 = Cytochrome P450 2C9 (Homo sapiens, UniProt P11712)
Cytochrome P450 2C19 = Cytochrome P450 2C19 (Homo sapiens, UniProt P33261); experiment: Cytochrome panel assay with activity outcomes. Panel member name: p450-cyp2c19 Compounds with AC50 equal or less than 10 uM are considered active; format: functional; conditions: read-out: AC50
[4] = Luminescence Cell-Based Dose Retest to Confirm Inhibitors of Cancer Stem Cells. [Related pubchem assays (depositor defined):AID2717, AID2721]; format: functional; conditions: Homo sapiens
[5] = inhibitors of SNCA 5'UTR-driven reporter translation, confirmation, H4 neuroglioma cells, luminescence (AID 1988); format: functional, cell-based
[6] = P. falciparum Dd2 growth inhibitors, dose response, SYBR Green, cherry-picked samples (AID 1159567); format: functional, cell-based
[7] = target: T2, RNA-binding protein pos-1 (Caenorhabditis elegans, UniProt G5EF15); experiment: inhibitors of POS-1/mex-3 RNA binding, dose response, biochemical, fluorescence polarization (AID 1964);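 note: purified POS-1 fused to maltose binding protein made in E. coli; potency of compounds blocking POS-1 binding to fluorescent RNA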
T2 sequence (G5EF15 whole entry): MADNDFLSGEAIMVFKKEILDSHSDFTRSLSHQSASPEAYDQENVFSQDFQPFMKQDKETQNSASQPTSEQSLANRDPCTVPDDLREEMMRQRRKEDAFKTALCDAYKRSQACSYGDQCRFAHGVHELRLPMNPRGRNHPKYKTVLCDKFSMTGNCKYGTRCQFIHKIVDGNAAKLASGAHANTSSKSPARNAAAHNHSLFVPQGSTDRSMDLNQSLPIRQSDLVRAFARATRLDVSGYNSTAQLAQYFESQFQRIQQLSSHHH
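Throughout, for IC50: confirmatory concentration-response retest of ultra-high-throughput screening hits for modulation of myocardial damage; cell death induced by hydrogen peroxide oxidative stress; compound pretreatment for 60 min then peroxide exposure for 2 h; potency is for protecting the cells against peroxide damage rather than for killing them.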

Sequence of Luciferin 4-monooxygenase (P08659 whole entry): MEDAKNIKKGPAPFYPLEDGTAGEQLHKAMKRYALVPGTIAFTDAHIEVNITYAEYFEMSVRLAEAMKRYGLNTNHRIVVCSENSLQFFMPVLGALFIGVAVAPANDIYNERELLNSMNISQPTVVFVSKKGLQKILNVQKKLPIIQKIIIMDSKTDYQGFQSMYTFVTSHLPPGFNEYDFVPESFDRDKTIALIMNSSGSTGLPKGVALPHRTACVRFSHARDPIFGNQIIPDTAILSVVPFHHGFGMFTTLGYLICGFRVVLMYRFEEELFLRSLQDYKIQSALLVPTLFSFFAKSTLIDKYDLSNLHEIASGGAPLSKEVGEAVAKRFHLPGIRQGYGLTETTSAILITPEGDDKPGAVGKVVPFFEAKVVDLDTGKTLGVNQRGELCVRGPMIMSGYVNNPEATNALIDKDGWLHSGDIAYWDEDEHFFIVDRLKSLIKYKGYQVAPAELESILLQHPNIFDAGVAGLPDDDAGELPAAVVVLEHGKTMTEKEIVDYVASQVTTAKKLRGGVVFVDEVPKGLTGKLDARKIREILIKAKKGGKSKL
Sequence of Cytochrome P450 3A4 (P08684 whole entry): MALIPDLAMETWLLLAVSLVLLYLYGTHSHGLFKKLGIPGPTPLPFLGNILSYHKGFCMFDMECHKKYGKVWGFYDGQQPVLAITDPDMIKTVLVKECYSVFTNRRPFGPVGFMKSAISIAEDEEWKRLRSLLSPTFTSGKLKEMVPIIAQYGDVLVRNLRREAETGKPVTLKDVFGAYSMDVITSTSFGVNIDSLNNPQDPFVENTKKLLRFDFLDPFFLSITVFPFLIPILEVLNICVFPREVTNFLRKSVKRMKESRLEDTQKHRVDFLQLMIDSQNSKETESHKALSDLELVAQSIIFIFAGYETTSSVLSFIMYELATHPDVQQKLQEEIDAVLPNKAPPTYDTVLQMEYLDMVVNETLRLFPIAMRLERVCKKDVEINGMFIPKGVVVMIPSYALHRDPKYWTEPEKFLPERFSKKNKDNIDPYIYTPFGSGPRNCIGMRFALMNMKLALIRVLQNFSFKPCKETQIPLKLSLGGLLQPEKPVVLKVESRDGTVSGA
Sequence of Cytochrome P450 2C19 (P33261 whole entry): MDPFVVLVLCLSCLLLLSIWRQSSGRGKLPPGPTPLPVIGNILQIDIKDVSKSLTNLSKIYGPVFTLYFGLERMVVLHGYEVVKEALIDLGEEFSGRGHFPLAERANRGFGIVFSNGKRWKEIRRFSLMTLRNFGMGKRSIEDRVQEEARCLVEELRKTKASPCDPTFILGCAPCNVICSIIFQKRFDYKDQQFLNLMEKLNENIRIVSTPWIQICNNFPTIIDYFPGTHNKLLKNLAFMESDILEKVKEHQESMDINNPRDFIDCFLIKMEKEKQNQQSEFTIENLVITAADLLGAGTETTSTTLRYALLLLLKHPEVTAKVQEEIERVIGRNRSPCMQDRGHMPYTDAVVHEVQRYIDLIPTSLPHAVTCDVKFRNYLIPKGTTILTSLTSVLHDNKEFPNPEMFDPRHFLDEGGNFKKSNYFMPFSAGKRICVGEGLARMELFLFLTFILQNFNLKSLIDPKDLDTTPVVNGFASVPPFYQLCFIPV
Sequence of Cytochrome P450 2C9 (P11712 whole entry): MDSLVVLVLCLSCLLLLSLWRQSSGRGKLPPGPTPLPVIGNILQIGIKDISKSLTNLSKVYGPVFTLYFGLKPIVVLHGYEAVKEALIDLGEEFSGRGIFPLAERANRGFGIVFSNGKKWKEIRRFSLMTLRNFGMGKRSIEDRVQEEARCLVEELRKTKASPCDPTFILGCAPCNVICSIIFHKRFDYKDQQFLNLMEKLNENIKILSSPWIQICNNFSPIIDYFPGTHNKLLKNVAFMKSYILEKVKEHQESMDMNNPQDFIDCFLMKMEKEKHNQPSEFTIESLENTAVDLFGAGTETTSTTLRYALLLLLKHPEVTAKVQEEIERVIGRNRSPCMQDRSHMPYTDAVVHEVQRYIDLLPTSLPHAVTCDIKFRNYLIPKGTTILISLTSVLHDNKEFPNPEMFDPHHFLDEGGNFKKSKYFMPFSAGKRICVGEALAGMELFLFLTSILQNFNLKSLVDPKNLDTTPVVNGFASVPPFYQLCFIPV

## Nc1nc(Nc2ccccc2)nc2c1ncn2[C@@H]1O[C@H](CO)[C@@H](O)[C@H]1O
[1]
  EC50: > 112 µM (not active)
[2]
  EC50: 0.224 µM (active)

## Nc1c2c(nc3c1CCCC3)CCCC2.O=C(O)c1ccnc(O)c1
[3]
  EC50: 2.99 µM (active)

## CCOc1cc(/C=C/c2nc(O)c3ccccc3n2)ccc1O
H9c2
  IC50: 9.17 µM (active)

## Cc1ccccc1OCCC(=O)N1CCN(S(=O)(=O)c2ccccc2F)CC1
[1]
  EC50: > 112 µM (not active)
[2]
  EC50: > 112 µM (not active)

## O=C(CCc1ccccc1)Nc1nncs1
Cytochrome P450 3A4
  AC50: 12.6 µM (inconclusive)
Cytochrome P450 2C9
  AC50: 31.6 µM (inconclusive)
Cytochrome P450 2C19
  AC50: 39.8 µM (inconclusive)
[1]
  EC50: > 112 µM (not active)
[2]
  EC50: > 112 µM (not active)

## CCOc1ccc(N/C=C/C(=O)c2ccc(OC)cc2)cc1
[1]
  EC50: > 112 µM (not active)
[2]
  EC50: > 112 µM (not active)

## CCn1nnc(NC(=O)c2cccnc2)n1
[1]
  EC50: > 112 µM (not active)
[2]
  EC50: > 112 µM (not active)

## O=C(CCCSc1nc(O)c2c3c(sc2n1)CCC3)NCCCO
H9c2
  IC50: 19.9 µM (active)

## CS(=O)(=O)N(Cc1ccc(C(=O)NCCSc2ccccn2)cc1)c1ccccc1
H9c2
  IC50: 17.4 µM (active)

## CCOC(=O)c1ccccc1NC(=O)c1ccc2c(=O)n3c(nc2c1)CCCCC3
H9c2
  IC50: > 79 µM (inactive)

## Clc1ccc(/C=C/c2nc3ccccc3[nH]2)cc1
[4]
  AC50: 2.34 µM (active)
[1]
  EC50: 0.545 µM (active)
[2]
  EC50: 1.05 µM (active)
[5]
  EC50: 9.68 µM (inconclusive)

## COc1ccc(CNC(=O)CN(C)Cc2ccccc2F)cc1OC
[3]
  EC50: 8.41 µM (active)

## CC(=O)Nc1ccc(OC(=O)N(C)c2ccccc2)cc1
[1]
  EC50: > 112 µM (not active)
[2]
  EC50: 18.8 µM (active)

## COc1ccc(C)cc1N(C(=O)c1snc(C(N)=O)c1N)C(C(=O)NC1CCCC1)c1ccc(F)cc1 (configuration not stated)
[3]
  EC50: 1.33 µM (active)

## Cc1cc(C)c(S(=O)(=O)c2ccccc2C)c(OCC(C)(C)C)n1
[3]
  EC50: 2.37 µM (active)

## COc1ccc(C(=O)NNC(=O)c2ccc3ccccc3n2)cc1
H9c2
  IC50: > 79 µM (inactive)

## Cc1ccc(NC(=O)CN2CCc3ccccc3C2)cc1S(=O)(=O)N1CCOCC1
[3]
  EC50: 3.76 µM (active)

## O=C(CN1C(=O)c2cccc3cccc1c23)N1CCN(c2cccc(Cl)c2)CC1
[1]
  EC50: > 112 µM (not active)
[2]
  EC50: > 112 µM (not active)

## CSc1nc(N2CCOCC2)c2c3c(sc2n1)CCCC3
[3]
  EC50: 4.73 µM (active)

## O=C(Cn1c(NCCCO)nc2ccccc21)c1ccc(Br)cc1
[3]
  EC50: 2.99 µM (active)

## CCOC(=O)CSc1nc2c(sc(=S)n2Cc2ccco2)c(=O)n1-c1ccccc1
[3]
  EC50: 2.37 µM (active)

## Cc1ccc(NC(=O)CSCC(=O)OCc2cc(=O)oc3cc(O)ccc23)c(C)c1
[3]
  EC50: 5.96 µM (active)

## C=CCOc1ccc(C2CC(C)=NN2c2ccccc2)cc1 (configuration not stated)
[3]
  EC50: 4.22 µM (active)

## CCCCN(Cc1ccccc1)C(=O)C1CCN(Cc2sccc2C)CC1
[3]
  EC50: 2.99 µM (active)

## CC(C)CC(=O)Nc1cccc(NC(=O)c2ccccc2Cl)c1
[1]
  EC50: > 112 µM (not active)
[2]
  EC50: 2.39 µM (active)

## CCCCn1c(SCC(=O)OCC)nc2c(sc(=S)n2-c2ccccc2OC)c1=O
[3]
  EC50: 1.68 µM (active)

## CN(CC(=O)Nc1cccc(F)c1)C(=O)CCCc1nc(O)c2ccccc2n1
H9c2
  IC50: > 79 µM (inactive)

## CC(=O)Nc1cccc(-c2cc(NC(C)=O)c3ncc(-c4cccc(C(C)=O)c4)n3c2)c1
H9c2
  IC50: > 79 µM (inactive)

## COc1cc(-c2cc(NC(C)=O)c3ncc(-c4cc(OC)c(OC)c(OC)c4)n3c2)cc(OC)c1OC
H9c2
  IC50: > 79 µM (inactive)

## COc1ccc(CCCNC(=O)C2(C)Cc3c(-c4ccc(NC(C)=O)cc4)ccnc3O2)cc1 (configuration not stated)
H9c2
  IC50: > 79 µM (inactive)

## CCOC(=O)c1ccccc1OCc1cc(/C=N/NC(=O)c2cccnc2)ccc1OC
H9c2
  IC50: > 79 µM (inactive)

## CO[C@@H]1CN(C)C(=O)c2cc(NC(=O)NC3CCCCC3)ccc2OC[C@@H](C)N(CCc2ccccc2)C[C@H]1C
[6]
  AC50: 5.84 µM (active)

## CN(C)c1ccc(/C=N/N(CCC(=O)NC(C)(C)C)C2=NS(=O)(=O)c3ccccc32)cc1
[7]
  EC50: > 300 µM (not active)
